Measurements taken from ChEMBL document CHEMBL1129758, “Rapid synthesis of novel dipeptide inhibitors of human collagenase and gelatinase using solid phase chemistry” (Bioorg Med Chem Lett, 1996).
pIC50: −log10 of the molar value. Where a name gives a salt, the structure may show the parent alone. *1 amine or outer side, *2 acyl side, *3 side chain or, on linkers, in order; H or OH if unused. Where a SMILES comes first, the peptide text is derived from it. [ ]: non-standard residue; d: D form. The star is where a group is joined. Hydrocinnamoyl = O=C(CCc1ccccc1)*; 3Pal = N[C@@H](Cc1cccnc1)C(=O)O; 2Thi = N[C@@H](Cc1cccs1)C(=O)O; CO = O=C([*:1])[*:2]; Tfa = O=C(C(F)(F)F)*; NHPh = c1ccc(N*)cc1

Key:
[1] = target: T1, Interstitial collagenase (Homo sapiens, UniProt P03956); experiment: Inhibitory activity against human fibroblast collagenase (MMP-1)
T1 sequence (P03956 whole entry): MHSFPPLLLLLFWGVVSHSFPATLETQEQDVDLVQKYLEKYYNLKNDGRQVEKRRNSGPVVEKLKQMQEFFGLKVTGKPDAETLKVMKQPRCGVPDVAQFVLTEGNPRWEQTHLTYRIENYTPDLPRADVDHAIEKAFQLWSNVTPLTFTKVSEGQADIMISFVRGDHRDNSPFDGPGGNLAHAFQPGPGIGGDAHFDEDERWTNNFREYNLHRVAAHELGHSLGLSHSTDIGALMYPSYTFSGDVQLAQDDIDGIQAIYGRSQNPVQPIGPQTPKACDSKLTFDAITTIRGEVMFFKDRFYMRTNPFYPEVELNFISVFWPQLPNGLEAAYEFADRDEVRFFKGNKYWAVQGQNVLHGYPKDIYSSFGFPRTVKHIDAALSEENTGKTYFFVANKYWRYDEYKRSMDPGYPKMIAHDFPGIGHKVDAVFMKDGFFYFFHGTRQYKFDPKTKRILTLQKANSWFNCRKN

[2] = target: Matrix metalloproteinase-9 (Homo sapiens, UniProt P14780); experiment: Compound was tested for its inhibitory activity against 92 kD gelatinase (MMP-9)
Matrix metalloproteinase-9, sequence (P14780 whole entry): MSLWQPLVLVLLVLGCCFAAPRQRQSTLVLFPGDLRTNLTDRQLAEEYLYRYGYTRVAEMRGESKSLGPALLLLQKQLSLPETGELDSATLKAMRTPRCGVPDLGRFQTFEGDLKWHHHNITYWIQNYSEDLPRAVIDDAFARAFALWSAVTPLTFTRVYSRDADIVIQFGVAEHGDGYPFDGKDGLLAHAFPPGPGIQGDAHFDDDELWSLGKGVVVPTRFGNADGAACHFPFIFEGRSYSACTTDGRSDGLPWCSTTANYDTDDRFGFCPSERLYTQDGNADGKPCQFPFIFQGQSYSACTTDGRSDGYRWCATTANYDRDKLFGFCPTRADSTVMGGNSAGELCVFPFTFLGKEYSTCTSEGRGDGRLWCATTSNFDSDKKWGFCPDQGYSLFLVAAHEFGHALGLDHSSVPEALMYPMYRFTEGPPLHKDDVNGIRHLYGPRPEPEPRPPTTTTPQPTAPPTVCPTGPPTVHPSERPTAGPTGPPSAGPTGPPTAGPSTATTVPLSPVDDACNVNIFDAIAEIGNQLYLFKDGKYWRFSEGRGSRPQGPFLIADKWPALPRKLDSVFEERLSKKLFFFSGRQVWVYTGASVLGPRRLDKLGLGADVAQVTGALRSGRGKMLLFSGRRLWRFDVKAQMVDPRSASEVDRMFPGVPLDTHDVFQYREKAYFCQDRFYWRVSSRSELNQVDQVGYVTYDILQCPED

Row | Structure (SMILES) | pIC50 [1] | pIC50 [2]
1 | CC(=O)N[C@@H](CS)C(=O)N[C@@H](Cc1c[nH]c2ccccc12)C(N)=O (Ac-Cys-Trp-NH2) | 5.30 | 
2 | NC(=O)[C@H](Cc1ccccc1)NC(=O)[C@H](CS)NC(=O)c1ccc(-c2ccccc2)cc1 | 6.37 | 7.68
3 | NC(=O)[C@H](Cc1ccccc1)NC(=O)[C@H](CS)NC(=O)COc1ccccc1 | 6.22 | 7.47
4 | CC(=O)N[C@@H](CS)C(=O)N[C@@H](Cc1cccs1)C(N)=O (Ac-Cys-[2Thi]-NH2) | 5.40 | 
5 | NC(=O)[C@H](Cc1ccccc1)NC(=O)[C@H](CS)NC(=O)CCc1ccccc1 (Hydrocinnamoyl-Cys-Phe-NH2) | 5.46 | 7.42
6 | NC(=O)[C@H](Cc1cccs1)NC(=O)[C@H](CS)NC(=O)c1ccc2nn[nH]c2c1 | 7.47 | 6.99
7 | NC(=O)[C@H](Cc1ccccc1)NC(=O)[C@H](CS)NC(=O)c1ccncc1 | 7.03 | 7.39
8 | NC(=O)[C@H](Cc1ccccc1)NC(=O)[C@H](CS)NC(=O)c1ccc2[nH]nnc2c1 | 8.10 | 7.62
9 | NC(=O)[C@H](Cc1ccccc1)NC(=O)[C@H](CS)NC(=O)c1cccs1 | 6.98 | 7.31
10 | NC(=O)[C@H](Cc1ccccc1)NC(=O)[C@H](CS)NC(=O)c1ccc(=O)[nH]c1 | 7.08 | 7.39
11 | CC(=O)N[C@@H](CS)C(=O)N[C@@H](Cc1ccccc1)C(N)=O (Ac-Cys-Phe-NH2) | < 4.00 | 
12 | NC(=O)[C@H](Cc1ccccc1)NC(=O)[C@H](CS)NC(=O)c1ccc2c(c1)OCO2 | 6.67 | 7.72
13 | NC(=O)[C@H](Cc1cccnc1)NC(=O)[C@H](CS)NC(=O)c1ccc2[nH]nnc2c1 | 7.92 | 7.38
14 | NC(=O)[C@H](Cc1ccccc1)NC(=O)[C@H](CS)NC(=O)c1ccsc1 | 6.89 | 7.09
15 | NC(=O)[C@H](Cc1ccccc1)NC(=O)[C@H](CS)NC(=O)C(F)(F)F (Tfa-Cys-Phe-NH2) | 7.40 | < 6.00
16 | COC(=O)[C@H](Cc1ccccc1)NC(=O)[C@H](CS)NC(=O)C(F)(F)F (Tfa-Cys-Phe-OMe) | 7.20 | < 6.00
17 | NC(=O)[C@H](Cc1cccnc1)NC(=O)[C@H](CC(=O)O)NC(=O)c1ccc2[nH]nnc2c1 | 6.34 | 
18 | NC(=O)[C@H](Cc1cccnc1)NC(=O)[C@H](CS)NC(=O)c1cn[nH]c1 | 7.59 | 7.15
19 | NC(=O)[C@H](Cc1ccccc1)NC(=O)[C@H](CS)NC(=O)c1ccoc1 | 6.77 | 7.08
20 | NC(=O)[C@H](Cc1ccccc1)NC(=O)[C@H](CS)NC(=O)c1cn[nH]c1 | 7.59 | 7.15
21 | NC(=O)[C@H](Cc1ccccc1)NC(=O)[C@H](CS)NC(=O)Nc1ccccc1 ({NHPh-CO}-Cys-Phe-NH2) | 7.40 | 7.96
22 | CN(C)c1ccc(C(=O)N[C@@H](CS)C(=O)N[C@@H](Cc2ccccc2)C(N)=O)cc1 | 6.83 | 7.10
23 | CC(=O)N[C@@H](CS)C(=O)N[C@H](C(N)=O)C(C)C (Ac-Cys-Val-NH2) | 5.15 | 
24 | NC(=O)[C@H](Cc1ccccc1)NC(=O)[C@H](CS)NC(=O)c1ccc(-n2cccc2)nc1 | 6.60 | 7.82
25 | CC(=O)N[C@@H](CS)C(=O)N[C@@H](Cc1cccnc1)C(N)=O (Ac-Cys-[3Pal]-NH2) | 5.40 | 
